Reference: patent publication US12416036B2, “High-throughput enzyme assay for screening activity of acyltransferases” (CORNELL UNIVERSITY, priority 2021, dated 2025)
Positions count from the first letter of the chain named. Entries after “also recorded” stand apart in the source; their conditions may differ. Like-named read-outs stand apart in the source and are kept apart here. Residues, ends and D or L forms follow the SMILES beside them. *: point of attachment. 5FAM = O=C1OC2(c3ccc(O)cc3Oc3cc(O)ccc32)c2ccc(C(=O)*)cc21

How the values were obtained:
ZDHHC7 [1] = target: T1, ZDHHC7 (Mus musculus, UniProt Q91WU6); assay: Enzyme kinetics of ZDHHC7 on the FAM-KRas4a peptide by HPLC; type: biochemical; design: myc (vector pblueBac4.5-myc3His10) (C); His (vector pblueBac4.5-myc3His10) (C); made in house; host or cells: Sf9 insect cells (baculovirus); settings: ZDHHC7, 60 μM palmitoyl-CoA
T1 sequence (Q91WU6 1-308): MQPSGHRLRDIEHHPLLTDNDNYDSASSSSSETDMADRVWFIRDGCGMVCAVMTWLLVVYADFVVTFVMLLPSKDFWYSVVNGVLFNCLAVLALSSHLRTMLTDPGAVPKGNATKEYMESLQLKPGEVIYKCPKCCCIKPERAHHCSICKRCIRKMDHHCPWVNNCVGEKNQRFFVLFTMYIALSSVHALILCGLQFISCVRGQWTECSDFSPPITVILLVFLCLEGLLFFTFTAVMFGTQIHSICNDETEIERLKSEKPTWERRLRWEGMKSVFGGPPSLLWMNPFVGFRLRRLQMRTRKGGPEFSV
Experimental: ZDHHC-catalyzed S-palmitoylation was detected by LC-MS. To facilitate detection by UV, two tryptophan residues were added to the C-terminus of the peptide. In a second peptide, the 5-FAM group was attached to permit detection in the acyl-cLIP assay.
In solutions containing 0.1% DMM, 50 mM MES pH 6.4, 0.5 mM TCEP, 60 μM palmitoyl-CoA, and 0.15 μM DHHC7, FAM-KRas peptide was added to final concentration ranging from 31.25 μM to 2000 μM. After 10 minutes of incubation, the reaction was quenched with 0.1% acetonitrile. After centrifuging at 17 000 g for 10 minutes, the supernatant was loaded to Shimadzu HPLC LC20 Ad with Kinetex 5u EVO C18 100 Å column (100 mm×4.60 mm, 5 μm) for UV detection at 260 nm. Using HPLC-grade water with 0.1% trifluoroacetic acid as Buffer A and HPLC-grade acetonitrile with 0.1% trifluoroacetic acid, at a constant rate of 0.5 mL/min, the linear gradient for elution was 0% Buffer B (0-2 min), 20% Buffer B (2-4 min), 40% Buffer B (4-17 min), 100% Buffer B (17-19 min), 100% Buffer B (19-24 min), 0% Buffer B (24-25 min), and 0% Buffer B (25-30 min). Product formed was quantified using the ratio of substrate and product peak areas. After the detection, Km and kcat values were measured by GraphPad Prism software.

ZDHHC3 [2] = target: T2, ZDHHC3 (Mus musculus, UniProt Q8R173); assay: ZDHHC3 Acyl-cLIP assay (end-point method); type: biochemical; settings: for inhibition of ZDHHC3 compared with ZDHHC7 (Acyl-cLIP): comparison of Acyl-cLIP IC50 values
T2 construct: FLAG (C); His (C); made in house; host or cells: Sf9 insect cells (baculovirus)
T2 sequence (Q8R173 1-299): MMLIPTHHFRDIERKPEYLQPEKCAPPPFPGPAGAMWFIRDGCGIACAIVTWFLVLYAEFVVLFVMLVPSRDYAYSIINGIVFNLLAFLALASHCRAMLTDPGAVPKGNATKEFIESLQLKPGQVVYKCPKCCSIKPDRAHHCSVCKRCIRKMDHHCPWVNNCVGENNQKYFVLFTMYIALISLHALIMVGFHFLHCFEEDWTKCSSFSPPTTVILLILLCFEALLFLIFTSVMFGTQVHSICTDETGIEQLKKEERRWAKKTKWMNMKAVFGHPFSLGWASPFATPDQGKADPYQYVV
Experimental: The DHHC3 IC50 value for 2-BP and MY-D-4 were approximately 250 and 50 μM, respectively (Table 1).
ZDHHC3 was assayed using the similar protocol at a final concentration of 0.6 μM.
The rest of the experiment was done identical to the ZDHHC7 assay.
(§1) Purification of ZDHHC enzymes.

ZDHHC7 [3] = target: T1, ZDHHC7; assay: ZDHHC7-myrGia PAT assay with [3H]palmitoyl-CoA; type: biochemical; design: myc (vector pblueBac4.5-myc3His10) (C); His (vector pblueBac4.5-myc3His10) (C); made in house; host or cells: Sf9 insect cells (baculovirus); settings: [3H]palmitoyl-CoA and myr-Gia substrate; 10 min pre-incubation at 30° C.
Experimental: To further evaluate the potency of the inhibitors, the four compounds were tested using ZDHHC7-catalyzed palmitoylation of myristoylated (myr) Gi protein a subunit (Gia) using an established in vitro assay with [^3H]palmitoyl-CoA. Myr-Gia was previously reported as a substrate for ZDHHC7 (R. Tsutsumi et al., Mol. Cell. Biol., 29, 435-447, 2009). ZDHHC7 and the inhibitors were pre-incubated at 30° C. for 10 min, followed by the addition of [^3H]pal-mitoyl-CoA and myr-Gia. The acylation reaction was allowed to proceed at 30° C. for 10 min, the reaction was quenched, and the proteins resolved by SDS-PAGE. The [^3H]-palmitoylated myrGia band was excised from the gel and the level of [^3H]palmitoylation was measured by scintillation counting. […] Additionally, MY-D-2 and MY-D-3 inhibited ZDHHC7 weaker than 2-BP.
as §1
ZDHHC7-myrGia PAT Assay. Rat Myr-Gia was generated by transforming C-terminally His-tagged Gia in JM101 competent cells containing the N-myristoyltransferase (NMT) plasmid. Following inoculation and induction of the bacterial cells, myr-Gia was purified from total cell lysates using Ni-NTA resin. […] The PAT reaction was then initiated by mixing the enzyme:inhibitor solution with [^3H]-palmitoyl CoA (1 μM) and myr-Gia (1 μM). The reaction was allowed to proceed for 10 min at 30° C. and then stopped with the addition of sample buffer containing 10 mM TCEP. Proteins were resolved on a Coomassie-stained gel, and the myr-Gia band was excised and dissolved in Soluene (Perkin-Elmer). The excised bands were heated at 37° C. overnight and then combined with Ultima Gold scintillation fluid (Perkin-Elmer). Radioactivity was measured by scintillation counting. IC50 values for the inhibitors were calculated by plotting the inhibition curves in GraphPad Prism.

ZDHHC7 [4] = target: T1, ZDHHC7; assay: ZDHHC7 Acyl-cLIP assay (end-point method)
Experimental: Because these inhibitors may form irreversible covalent bonds with ZDHHCs, the order of adding the reagents were changed and included a 30-minute pre-incubation time to permit the bond to form prior to the addition of the FAM peptide and palmitoyl-CoA to initiate the reaction.
n-Dodecyl β-D-maltoside (DDM, 1.3 mg) was dissolved in 1 mL of water by vigorous vortexing. Preparing for 19 samples, “Buffer A” was prepared as follows: In a 1.5 mL Eppendorf tube with the DDM solution (190 μL), MES buffer pH 6.5 (stock concentration 500 mM, 38 μL), TCEP (stock concentration 30 mM, 6.33 μL), and ZDHHC7 (stock concentration 6 μM, 19 μL) were added. For the same 19 samples, “Buffer B” was prepared as followed. In a 1.5 mL Eppendorf tube with the DDM solution (76 μL), palmitoyl-CoA (stock concentration 1.5 mM, 12.6 μL) and FAM-Kras4a substrate (stock concentration 0.5 mM, 19 μL) was added. To each well of a black 384 well plate (Corning 3575), 1 μL of inhibitor (concentration ranging from 93.75 μM to 6000 μM) was added. First, 13.3 μL of “Buffer A” was added to each well. After a 30-minute pre-incubation, 5.66 μL of “Buffer B” was added. The final concentration of the reaction mixture was 50 mM MES pH 6.4, 0.5 mM TCEP, 40 μM palmitoyl-CoA, 0.3 μM ZDHHC7, and 25 μM FAM-KRas4a substrate in 0.1% DDM solution. After 30 minutes, the reaction was quenched by adding 4 μL of 6 mM non-FAM KRas-4a substrate. The fluorescence anisotropy was measured by citation 5 with “8040561 Filter BLK ASBY GRN FP VSBL K” cube at excitation of 485/20 nm, emission of 528/20 nm, and normal read speed mode. The measurements were done in 3 replicates at each inhibitor concentration.

ZDHHC7 [5] = target: T3, ZDHHC7 (Homo sapiens, UniProt Q9NXF8); assay: STAT3 fatty acylation induced by ZDHHC7 in HEK293T cells (Alk14 labeling, in-gel fluorescence); settings: for STAT3 fatty acylation (ZDHHC7): 50 μM inhibitor, 6-hour treatment; for STAT3 acylation (ZDHHC7): 12- and 24-hour inhibitor treatment; for in-cell inhibition of ZDHHC7 (overall): HEK293T cells, summary statement
T3 sequence (Q9NXF8 1-308): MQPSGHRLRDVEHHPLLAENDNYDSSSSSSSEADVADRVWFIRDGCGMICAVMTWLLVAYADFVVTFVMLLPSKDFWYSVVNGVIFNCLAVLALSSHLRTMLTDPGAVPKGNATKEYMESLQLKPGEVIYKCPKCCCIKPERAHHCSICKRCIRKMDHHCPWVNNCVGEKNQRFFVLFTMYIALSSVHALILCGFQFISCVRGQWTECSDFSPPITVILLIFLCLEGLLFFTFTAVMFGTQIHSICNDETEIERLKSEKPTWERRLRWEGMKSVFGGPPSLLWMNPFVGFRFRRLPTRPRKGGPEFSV
Experimental: Cells were treated with 50 μM of the inhibitors for the indicated hours and labeled with 50 μM of Alk-14 for 6 hours. […] Cells were treated with 25 μM of inhibitors for 16 hours and labeled with 50 μM of Alk-14 for 6 hours. Relative FL/Protein for both experiments was calculated by dividing fluorescence signal by the protein level from the corresponding “CBB” lane. The fatty acylation level of DMSO with Alk14 was set to 1.
Flag-tagged STAT3 and HA-tagged ZDHHC7 were expressed in HEK293T cells. The cells were incubated with the four inhibitors. During the last six hours of the incubation, 50 μM of Alk14 probe was added to metabolically label palmitoylated STAT3. After collecting and lysing the cells, STAT3 was immunoprecipitated and the levels of acylation were determined by in-gel fluorescence after click chemistry.
HEK 293T cells were transfected with STAT3-Flag and ZDHHC3-HA or ZDHHC7-HA for 36 h, and treated with 50 μM 2-BP, MY-D-2, MY-D-3, or MY-D-4 for the indicated time with 6 h Alk14 labeling (50 μM). Cells were collected and lysed in the 1% NP-40 lysis buffer (25 mM Tris-HCl pH 8.0, 10% glycerol, 150 mM NaCl, 1% Nonidet P-40) with protease inhibitor cocktail (P8340, Sigma). STAT3-Flag was purified by anti-Flag agarose beads and resuspended in 50 μL IP wash buffer (25 mM Tris-HCl pH 8.0, 150 mM NaCl, 0.2% Nonidet P-40). Click chemistry was done by adding a mixture of 3 μL of 2 mM TAMRA azide (47130, Lumiprobe), 3.6 μL of 10 mM tris[(1-benzyl-1H-1,2,3-triazol-4-yl)methyl]amine (TBTA) (T2993, TCI chemicals), 3 μL of 40 mM CuSO4, 3 μL of 40 mM tris(2-carboxyethyl)phosphine HCl (TCEP hydrochloride) (580560, Millipore) to each sample. The mixtures were mixed by vortex and incubated in dark at room temperature for 30 min. 20 μL of the 6× loading buffer was added into each reaction mixture and the mixture was boiled at 95° C. for 10 min to denature. The mixture was separated by SDS-PAGE gel. The gel was scanned by the Typhoon 7000 Variable Mode Imager (GE Healthcare Life Sciences) in the rhodamine channel to visualize the fatty acylation of STAT3 and was stained with Coomassie Brilliant Blue (B7920, Sigma) to check for protein loading. Relative FL/Protein quantification was done by ImageJ.

ZDHHC3 [6] = target: T4, ZDHHC3 (Homo sapiens, UniProt Q9NYG2); assay: STAT3 fatty acylation induced by ZDHHC3 in HEK293T cells (Alk14 labeling, in-gel fluorescence); type: cell-based; settings: for effect on ZDHHC3-catalyzed STAT3 acylation level: 25 μM, 6-hour treatment
T4 construct: HA; expressed in transfected cells; host or cells: HEK 293T cells
T4 sequence (Q9NYG2 1-299): T2 sequence (Q8R173 1-299) with D11N, A25V, F29Y, A33V, A35T, V68I, A74V, A224G
From the text: Next experiments also tested the four compounds for ZDHHC3 inhibition in HEK293T cells that over-express both ZDHHC3 and STAT3. […] Thus, the results from the Acyl-cLIP assay can be used to predict cellular responses.

ZDHHC3 [7] = target: T2, ZDHHC3; assay: ZDHHC-HRas PAT assay, ZDHHC3; type: biochemical; settings: fixed inhibitor concentration of 1 μM; order MY-D-4, 2-BP, MY-D-2, MY-D-3
Experimental: (§2) The results of the Acyl-cLIP assay were also compared with a conventional assay using HRas protein. Next experiments screened at a fixed inhibitor concentration of 1 μM against ZDHHC3 and ZDHHC7 using [^3H]palmitoyl-CoA and HRas protein as substrates. The levels of [^3H]palmitoylated HRas were detected.
as §1
(§3) ZDHHC-HRas PAT Assay. His-HRas was purified from total cell lysates of baculovirus-infected Sf9 cells using Ni-NTA resin.

ZDHHC7 [8] = target: T1, ZDHHC7; assay: ZDHHC-HRas PAT assay, ZDHHC7; type: biochemical; design: myc (vector pblueBac4.5-myc3His10) (C); His (vector pblueBac4.5-myc3His10) (C); made in house; host or cells: Sf9 insect cells (baculovirus); settings: fixed inhibitor concentration of 1 μM; order MY-D-4, 2-BP, MY-D-2, MY-D-3
Experimental: as §2, §1, §3

[9] = 30-minute pre-incubation, FAM-KRas4a peptide substrate
[10] = IC50 (μM) ZDHHC7 (Acyl-cLIP), 30-minute pre-incubation with inhibitor, FAM-KRas4a peptide substrate
[11] = IC50 ZDHHC7 (Acyl-cLIP) without the pre-incubation, without pre-incubation

Row | SMILES | Km (ZDHHC7 [1]) [µM] | IC50 (ZDHHC3 [2]; [9]) [µM] | inhibition of ZDHHC3 compared with ZDHHC7 (Acyl-cLIP) (ZDHHC3 [2]) | IC50 (ZDHHC7 [3]) [µM] | IC50 (ZDHHC7 [4]; read-out: IC50 (μM) ZDHHC7 (Acyl-cLIP), 30-minute pre-incubation with inhibitor, FAM-KRas4a peptide substrate) [µM] | IC50 (ZDHHC7 [4]; read-out: IC50 ZDHHC7 (Acyl-cLIP) without the pre-incubation, without pre-incubation) [µM] | time-dependent inhibition of STAT3 acylation (ZDHHC7) (ZDHHC7 [5]; 25 μM inhibitor, HEK293T) | STAT3 fatty acylation (ZDHHC7) (ZDHHC7 [5]; HEK293T) | STAT3 acylation (ZDHHC7) (ZDHHC7 [5]; HEK293T) | IC50 (μM) ZDHHC3 (Acyl-cLIP) (ZDHHC3 [2]; [9]) | effect on ZDHHC3-catalyzed STAT3 acylation level (ZDHHC3 [6]) | IC50 (ZDHHC7 [4]; [10]) [µM] | inhibition of ZDHHC7 (Acyl-cLIP) at highest concentration (ZDHHC7 [4]; at 150 μM) | in-cell inhibition of ZDHHC7 (overall) (ZDHHC7 [5]) | IC50 (ZDHHC7 [4]; [11]) [µM] | IC50 (ZDHHC3 [2]) [µM] | inhibition of ZDHHC3 in living cells (FIG. 4B) (ZDHHC3 [6]; 25 μM of inhibitors for 16 hours) | IC50 (ZDHHC7 [5]) [µM] | inhibition of ZDHHC3, levels of [3H]palmitoylated HRas (ZDHHC3 [7]) | inhibition of ZDHHC7, levels of [3H]palmitoylated HRas (ZDHHC7 [8])
1 | CC[C@H](C)[C@H](NC(=O)c1ccc2c(c1)C(=O)OC21c2ccc(O)cc2Oc2cc(O)ccc21)C(=O)N[C@@H](CO)C(=O)N[C@@H](CCCCN)C(=O)N[C@@H](CCC(=O)O)C(=O)N[C@@H](CCC(=O)O)C(=O)N[C@@H](CCCCN)C(=O)N[C@H](C(=O)N1CCC[C@H]1C(=O)NCC(=O)N[C@@H](CS)C(=O)N[C@H](C(=O)N[C@@H](CCCCN)C(=O)N[C@H](C(=O)N[C@@H](CCCCN)C(=O)N[C@@H](CCCCN)C(=O)O)[C@@H](C)CC)C(C)C)[C@@H](C)O [FAM-KRas4a peptide] (5FAM-ISKEEKTPGCVKIKK-OH) | 184 |  |  |  |  |  |  |  |  |  |  |  |  |  |  |  |  |  |  | 
2 | CCCCCCCCCCCCCCC(Br)C(=O)O (centres unmarked) [2-BP, 2-bromopalmitate, reference compound] |  | > 250 | inhibited ZDHHC3 much less than ZDHHC7 | 16 | 9 | 12 | slightly more inhibitory effect than MY-D-4 | abolished | completely eliminated |  |  |  |  |  |  |  |  |  |  | 
3 | CCCCCCCCCCCCCCC(Br)C(=O)Nc1ccccc1 [MY-D-3, 2-bromo-N-phenylhexadecanamide] |  |  |  | 78 |  |  |  | had no effect |  | No | did not alter | > 150 | no inhibition | no inhibition |  |  |  |  |  | 
4 | CCCCCCCCCCCCCCC(Br)C(=O)OC [MY-D-2, methyl 2-bromohexadecanoate] |  |  |  | 29 |  |  |  | only slightly decreased |  | No | only slightly affected | 38 |  | only mild inhibition | 75 |  |  |  |  | 
5 | CCCCCCCCCCCCCCC(Br)C(=O)SCCNC(C)=O [MY-D-4, S-(2-acetamidoethyl) 2-bromohexadecanethioate] |  |  | inhibited ZDHHC3 much less than ZDHHC7 | 1.6 |  |  |  | significantly reduced | completely eliminated |  |  | 4.4 |  | slightly weaker than or similar potency to 2-BP; also recorded: inhibits | 6.3 | ~50 | inhibits | 1 to 5 | strongest inhibition among the four compounds | strongest inhibition among the four compounds
